Article PMC6199744, “Development of Chemical Proteomics for the Folateome and Analysis of the Kinetoplastid Folateome” (ACS Infectious Diseases, 2018)
Where two headings read alike, the source gives them in different places.

What was measured:
Format in all cases: binding
[1] = target: T1, HeLa cell extract proteins (Homo sapiens, UniProt O00462)
T1 construct: endogenous in cells; host or cells: HeLa cell extract
T1 sequence (O00462 18-879): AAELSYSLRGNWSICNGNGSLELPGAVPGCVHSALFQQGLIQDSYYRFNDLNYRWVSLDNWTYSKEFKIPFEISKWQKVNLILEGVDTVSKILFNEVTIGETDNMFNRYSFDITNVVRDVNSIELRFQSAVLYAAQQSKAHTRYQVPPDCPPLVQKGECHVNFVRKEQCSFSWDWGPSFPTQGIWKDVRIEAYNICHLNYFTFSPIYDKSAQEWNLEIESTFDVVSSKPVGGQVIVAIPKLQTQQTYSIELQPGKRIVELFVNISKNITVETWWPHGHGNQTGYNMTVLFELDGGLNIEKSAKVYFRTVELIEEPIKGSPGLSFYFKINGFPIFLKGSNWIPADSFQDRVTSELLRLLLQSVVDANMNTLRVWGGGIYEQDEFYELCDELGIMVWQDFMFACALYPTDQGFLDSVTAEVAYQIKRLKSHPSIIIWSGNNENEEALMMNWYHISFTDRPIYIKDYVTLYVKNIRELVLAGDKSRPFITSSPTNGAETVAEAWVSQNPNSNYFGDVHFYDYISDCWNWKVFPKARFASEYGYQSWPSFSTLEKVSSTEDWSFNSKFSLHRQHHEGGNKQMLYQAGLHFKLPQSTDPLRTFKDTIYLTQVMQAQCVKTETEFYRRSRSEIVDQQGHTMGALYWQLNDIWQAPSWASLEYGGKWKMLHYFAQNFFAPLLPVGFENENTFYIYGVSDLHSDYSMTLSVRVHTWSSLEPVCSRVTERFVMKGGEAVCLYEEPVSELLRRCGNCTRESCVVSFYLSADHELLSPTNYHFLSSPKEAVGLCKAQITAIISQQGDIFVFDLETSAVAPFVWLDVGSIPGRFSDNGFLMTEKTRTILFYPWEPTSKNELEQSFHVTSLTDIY

[2] = target: T2, HeLa cell extract proteins (Homo sapiens, UniProt Q9H4A4)
T2 construct: endogenous in cells; host or cells: HeLa cell extract
T2 sequence (Q9H4A4 whole entry): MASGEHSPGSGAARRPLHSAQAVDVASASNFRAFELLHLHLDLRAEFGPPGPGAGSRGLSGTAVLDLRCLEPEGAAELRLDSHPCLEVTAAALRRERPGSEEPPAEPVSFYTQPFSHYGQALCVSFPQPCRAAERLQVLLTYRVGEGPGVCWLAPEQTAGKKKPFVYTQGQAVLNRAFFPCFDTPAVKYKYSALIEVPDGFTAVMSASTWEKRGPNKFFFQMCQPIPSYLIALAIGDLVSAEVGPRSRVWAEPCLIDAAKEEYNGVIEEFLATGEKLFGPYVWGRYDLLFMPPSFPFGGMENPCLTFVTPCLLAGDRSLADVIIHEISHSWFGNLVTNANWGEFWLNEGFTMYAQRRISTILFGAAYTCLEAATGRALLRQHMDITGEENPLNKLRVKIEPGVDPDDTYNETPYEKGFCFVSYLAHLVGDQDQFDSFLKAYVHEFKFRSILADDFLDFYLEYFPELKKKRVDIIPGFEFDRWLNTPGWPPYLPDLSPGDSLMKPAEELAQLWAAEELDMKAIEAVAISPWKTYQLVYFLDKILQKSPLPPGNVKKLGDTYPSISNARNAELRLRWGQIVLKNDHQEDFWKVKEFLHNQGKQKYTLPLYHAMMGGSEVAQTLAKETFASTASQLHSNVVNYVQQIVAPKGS

[3] = target: T3, HeLa cell extract proteins (Homo sapiens, UniProt P24390)
T3 construct: endogenous in cells; host or cells: HeLa cell extract
T3 sequence (P24390 1-212): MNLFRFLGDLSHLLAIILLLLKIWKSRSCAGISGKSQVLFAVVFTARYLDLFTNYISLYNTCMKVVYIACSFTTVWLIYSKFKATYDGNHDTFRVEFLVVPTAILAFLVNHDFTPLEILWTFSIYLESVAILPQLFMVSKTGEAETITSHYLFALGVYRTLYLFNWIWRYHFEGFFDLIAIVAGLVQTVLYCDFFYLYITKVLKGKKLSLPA

[4] = target: T4, HeLa cell extract proteins (Homo sapiens, UniProt O75534)
T4 construct: endogenous in cells; host or cells: HeLa cell extract
T4 sequence (O75534 1-798): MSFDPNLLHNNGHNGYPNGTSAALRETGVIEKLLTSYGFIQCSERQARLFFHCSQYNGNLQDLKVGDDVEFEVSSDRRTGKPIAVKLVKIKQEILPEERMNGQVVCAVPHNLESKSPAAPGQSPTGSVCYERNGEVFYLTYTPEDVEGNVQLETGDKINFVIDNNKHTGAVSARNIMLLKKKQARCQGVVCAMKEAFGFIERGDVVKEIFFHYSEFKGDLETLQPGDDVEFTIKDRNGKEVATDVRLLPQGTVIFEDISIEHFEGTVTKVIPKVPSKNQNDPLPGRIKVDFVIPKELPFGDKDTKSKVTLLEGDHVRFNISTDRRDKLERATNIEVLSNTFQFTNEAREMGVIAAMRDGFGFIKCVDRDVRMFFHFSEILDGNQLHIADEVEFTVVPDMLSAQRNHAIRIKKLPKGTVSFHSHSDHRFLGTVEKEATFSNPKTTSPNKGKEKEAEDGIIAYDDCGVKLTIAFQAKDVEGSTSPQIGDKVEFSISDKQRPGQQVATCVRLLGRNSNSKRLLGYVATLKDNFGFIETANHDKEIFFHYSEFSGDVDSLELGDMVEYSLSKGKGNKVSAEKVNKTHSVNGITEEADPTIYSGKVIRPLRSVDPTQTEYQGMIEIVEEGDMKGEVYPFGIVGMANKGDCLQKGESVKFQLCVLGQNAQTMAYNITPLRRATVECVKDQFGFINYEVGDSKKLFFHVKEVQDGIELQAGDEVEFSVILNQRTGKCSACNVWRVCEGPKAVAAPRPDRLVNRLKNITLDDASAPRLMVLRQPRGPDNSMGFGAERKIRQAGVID

[5] = target: T5, HeLa cell extract proteins (Homo sapiens, UniProt P30046)
T5 construct: endogenous in cells; host or cells: HeLa cell extract
T5 sequence (P30046 whole entry): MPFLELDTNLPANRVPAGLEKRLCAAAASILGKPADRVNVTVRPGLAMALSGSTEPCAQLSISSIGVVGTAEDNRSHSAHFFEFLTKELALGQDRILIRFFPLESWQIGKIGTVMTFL

[6] = target: T6, HeLa cell extract proteins (Homo sapiens, UniProt P25786); conditions: protein PSMA1; HeLa
T6 construct: endogenous in cells; host or cells: HeLa cell extract
T6 sequence (P25786 whole entry): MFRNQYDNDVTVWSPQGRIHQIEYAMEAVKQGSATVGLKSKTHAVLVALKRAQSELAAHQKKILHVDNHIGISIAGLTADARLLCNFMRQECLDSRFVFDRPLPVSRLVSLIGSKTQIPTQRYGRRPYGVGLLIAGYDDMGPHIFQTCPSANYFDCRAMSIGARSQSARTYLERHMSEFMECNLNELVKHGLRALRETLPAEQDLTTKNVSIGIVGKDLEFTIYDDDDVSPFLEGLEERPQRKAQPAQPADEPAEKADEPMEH

[7] = HeLa, protein MANBA (BETA-MANNOSIDASE PRECURSOR)

| SMILES | fold changes relative to vehicle control ([2]; protein RNPEP, HeLa) | fold changes relative to vehicle control ([3]; HeLa, protein KDELR1) | fold changes relative to vehicle control ([4]; HeLa, protein CSDE1) | fold changes relative to vehicle control ([5]; HeLa, captured protein DDT) | fold changes relative to vehicle control [6] | other results |
| --- | --- | --- | --- | --- | --- | --- |
| Nc1nc2c(c(=O)[nH]1)N(C=O)C(CNc1ccc(C(=O)N[C@@H](CCC(=O)O)C(=O)O)cc1)CN2 (some centres unmarked) [LEU, leucovorin] | 0.93 | 1.06 | 0.96 | 1.06 | – | fold changes relative to vehicle control ([1]; HeLa, protein MANBA (BETA-M[…])): 1.01 |
| Nc1nc2[nH]cc(CCc3ccc(C(=O)N[C@@H](CCC(=O)O)C(=O)O)cc3)c2c(=O)[nH]1 [PTX, pemetrexed] | – | – | – | – | – | fold changes relative to vehicle control [1]: 0.71; fold changes relative to vehicle control [2]: 0.81; fold changes relative to vehicle control [3]: 1.16; fold changes relative to vehicle control [4]: 1.14; fold changes relative to vehicle control [5]: 1.49 |
| CCCCCCOc1ccc(Cc2cnc(N)nc2N)cc1 [compound 1] | – | – | – | – | 1.2 | – |
| CCCCCCOc1cccc(Cc2cnc(N)nc2N)c1 [compound 2] | – | – | – | – | 1.36 | – |
| Nc1nc2cccc(-c3ccccc3)c2n1Cc1ccc(Cl)c(Cl)c1 [compound 3] | – | – | – | – | 0.97 | – |
| NCCOCCOCC(=O)Nc1nc2ncc(CNc3ccc(C(=O)NC(CCC(=O)O)C(=O)O)cc3)nc2c(=O)[nH]1 (centres unmarked) [compound 6] | 0.99 | 2.19 | 1.22 | 1.79 | – | fold changes relative to vehicle control [1, 7]: 0.71 |
| NCCCNc1ccc(C(=O)NC(CCC(=O)O)C(=O)O)cc1 (centres unmarked) [compound 7] | 0.74 | 1.25 | 1.05 | 1.25 | – | fold changes relative to vehicle control [1, 7]: 0.91 |
